Measured values: patent publication US11136312B2, “3,4,5-trisubstituted-1,2,4-triazoles and 3,4,5-trisubstituted-3-thio-1,2,4-triazoles and uses thereof” (Board of Trustees of Southern Illinois University, priority 2017, dated 2021)

Legend:
[1] = target: human somatostatin receptor SSTR2A (Homo sapiens (Human), UniProt P30874); test: Competitive radioligand binding, 125I-Tyr-SRIF 14, membrane preparations; conditions: competitive binding vs 125I-Tyr-SRIF 14, human SSTR2A membranes; read-out: SST2
Sequence of human somatostatin receptor SSTR2A (P30874 whole entry): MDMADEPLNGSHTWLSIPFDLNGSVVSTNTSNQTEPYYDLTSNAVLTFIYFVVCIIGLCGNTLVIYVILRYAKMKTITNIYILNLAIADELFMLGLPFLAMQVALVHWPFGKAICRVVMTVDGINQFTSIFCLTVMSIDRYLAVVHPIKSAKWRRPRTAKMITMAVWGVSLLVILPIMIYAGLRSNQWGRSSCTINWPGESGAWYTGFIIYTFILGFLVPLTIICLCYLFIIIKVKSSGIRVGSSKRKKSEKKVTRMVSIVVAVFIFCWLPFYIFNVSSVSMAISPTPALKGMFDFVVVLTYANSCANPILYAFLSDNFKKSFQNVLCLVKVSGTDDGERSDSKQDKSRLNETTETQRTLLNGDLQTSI
Description: Respective membrane receptor preparations were prepared in assay buffer (25 mM HEPES, 10 mM MgCl2, 1 mM CaCl2, 0.5% BSA, pH=7.4) at a 1:150 dilution. […] Binding assays were performed in triplicate for each concentration of ligand in a total volume of 200 μL radioligand (25 μL ligand, 25 μL radioligand, 150 μL receptors) and incubated at room temperature for 90 minutes using a shaking table. Binding was terminated by filtration through GF/B glass fiber filters that were presoaked in 0.5% polyethyleneimine for a minimum of 4 hours. Filters were washed 9× with 1000 μL ice cold wash buffer (50 mM Tris-HCl, pH=7.4, 0.2% BSA). Filters were scored, transferred into plastic test tubes and counted in a gamma counter (Wizard2, Perkin-Elmer). Determination of the Ki for each compound was performed using non-linear regression with GraphPad PRISM-5 software (GraphPad Software, Inc., La Jolla, Calif.).

[2] = target: CHO-K1 cells expressing human somatostatin SSTR4 (Homo sapiens (Human), UniProt P31391); test: Inhibition of forskolin stimulated cAMP, TR-FRET LANCE assay; type: cell-based; conditions: against 5 μM forskolin
Sequence of CHO-K1 cells expressing human somatostatin SSTR4 (P31391 whole entry): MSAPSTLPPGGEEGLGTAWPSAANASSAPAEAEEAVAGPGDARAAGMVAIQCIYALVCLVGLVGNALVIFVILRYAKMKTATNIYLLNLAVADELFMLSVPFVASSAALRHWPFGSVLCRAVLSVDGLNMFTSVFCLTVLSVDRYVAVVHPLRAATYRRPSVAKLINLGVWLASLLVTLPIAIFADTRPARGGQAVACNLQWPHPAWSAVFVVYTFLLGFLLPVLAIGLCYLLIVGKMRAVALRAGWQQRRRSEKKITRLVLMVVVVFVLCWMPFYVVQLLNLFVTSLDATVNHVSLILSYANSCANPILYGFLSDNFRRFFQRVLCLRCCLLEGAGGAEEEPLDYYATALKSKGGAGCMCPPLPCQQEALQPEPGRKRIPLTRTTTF
Description: Measurement of forskolin stimulated inhibition of cAMP was performed via time-resolved fluorescence resonance energy transfer (TR-FRET) LANCE assay (AD0262, PerkinElmer Life Science, Inc., Boston Mass.). […] LANCE cAMP assay was performed per manufacture instruction with assessment of respective compound, somatostatin-28 (Sigma-Aldrich Co., St. Louis, Mo.) as control agonist, against 5 μM forskolin, performed in triplicate across concentration curve. […] Data was calculated via GraphPad PRISM-5 software.

[3] = target: human somatostatin receptor SSTR3 (Homo sapiens (Human), UniProt P32745); test: Competitive radioligand binding, 125I-Tyr-SRIF 14, membrane preparations; conditions: competitive binding vs 125I-Tyr-SRIF 14, human SSTR3 membranes; read-out: SST3
Description: Competitive radioligand binding experiments were performed using MEMBRANE TARGET Systems (Perkin-Elmer, Boston, Mass.) for human somatostatin receptors: SSTR1 (ES-520-M400UA), SSTR2A (ES-521-M400UA), SSTR3 (ES523-M400UA), SSTR4 (ES-524-M400UA) and SSTR5 (ES-522-M400UA) receptors. (See Table 1). Respective membrane receptor preparations were prepared in assay buffer (25 mM HEPES, 10 mM MgCl2, 1 mM CaCl2, 0.5% BSA, pH=7.4) at a 1:150 dilution. Binding assays were performed using 1251-Tyr-SRIF 14 (Perkin-Elmer, NEX 3890) dissolved in 1 mM HCl. Binding assays were performed in triplicate for each concentration of ligand in a total volume of 200 μL radioligand (25 μL ligand, 25 μL radioligand, 150 μL receptors) and incubated at room temperature for 90 minutes using a shaking table. Binding was terminated by filtration through GF/B glass fiber filters that were presoaked in 0.5% polyethyleneimine for a minimum of 4 hours. Filters were washed 9× with 1000 μL ice cold wash buffer (50 mM Tris-HCl, pH=7.4, 0.2% BSA). Filters were scored, transferred into plastic test tubes and counted in a gamma counter (Wizard2, Perkin-Elmer). Determination of the Ki for each compound was performed using non-linear regression with GraphPad PRISM-5 software (GraphPad Software, Inc., La Jolla, Calif.).

- Ki [1]: > 10000 nM
- EC50 [2]: 2.03 nM
- Ki [3]: 1.7 nM
Structure (SMILES): c1ccc(Cc2nnc(Cc3c[nH]c4ccccc34)n2CCCc2c[nH]cn2)cc1 [SK-I-25, 3-((4-(3-(1H-imidazol-4-yl)propyl)-5-benzyl-4H-1,2,4-triazol-3-yl)methyl)-1H-indole]
